Experimental data from the OligoGym collection.
Oligonucleotides are written 5' to 3', each unit as a sugar letter and its base; * is a phosphorothioate linkage, no mark a phosphodiester; rarer units and linkages stand in square brackets, end groups in braces. Plain capitals give the bases only. d = 2'-deoxy (DNA); r = 2'-OH (RNA)

target: UBE2B; assay: reporter assay of Huesken 2005; details: siRNA
Further: test concentration or dose not given here.

Row | Substance | normalised inhibition (eCFP-eYFP dual reporter) [%]
1 | sense rGrArArGrArArUrArUrCrCrArArArUrArArArCdTdT / antisense rGrUrUrUrArUrUrUrGrGrArUrArUrUrCrUrUrCdAdG | 77.7
2 | sense rGrArArGrGrGrArCrArCrCrUrUrUrUrGrArArGdTdT / antisense rCrUrUrCrArArArArGrGrUrGrUrCrCrCrUrUrCdTdG | 79.8
3 | sense rGrArArUrArUrGrArGrArArArArGrArGrUrUrUdTdT / antisense rArArArCrUrCrUrUrUrUrCrUrCrArUrArUrUrCdTdC | 78.7
4 | sense rGrArArUrCrGrArUrGrGrArGrUrCrCrArArCrAdTdT / antisense rUrGrUrUrGrGrArCrUrCrCrArUrCrGrArUrUrCdTdG | 84.1
5 | sense rGrArGrArArArArGrArGrUrUrUrCrGrGrCrCrAdTdT / antisense rUrGrGrCrCrGrArArArCrUrCrUrUrUrUrCrUrCdAdT | 82.7
6 | sense rGrArGrArArUrArUrGrArGrArArArArGrArGrUdTdT / antisense rArCrUrCrUrUrUrUrCrUrCrArUrArUrUrCrUrCdGdT | 83.6
7 | sense rGrArUrGrUrArUrCrUrUrCrUrArUrCrUrUrArAdTdT / antisense rUrUrArArGrArUrArGrArArGrArUrArCrArUrCdAdT | 84.7
8 | sense rGrCrArCrArGrCrUrUrUrArUrCrArGrGrArArAdTdT / antisense rUrUrUrCrCrUrGrArUrArArArGrCrUrGrUrGrCdTdG | 83.8
9 | sense rGrCrArCrCrArUrCrUrGrArArArArCrArArCrAdTdT / antisense rUrGrUrUrGrUrUrUrUrCrArGrArUrGrGrUrGrCdGdC | 74.2
10 | sense rGrCrGrCrArCrCrArUrCrUrGrArArArArCrArAdTdT / antisense rUrUrGrUrUrUrUrCrArGrArUrGrGrUrGrCrGrCdCdA | 72.8
11 | sense rGrCrUrGrGrArUrGrArArCrCrGrArArUrCrCrUdTdT / antisense rArGrGrArUrUrCrGrGrUrUrCrArUrCrCrArGrCdAdG | 81.5
12 | sense rGrCrUrUrUrArUrCrArGrGrArArArArCrArArAdTdT / antisense rUrUrUrGrUrUrUrUrCrCrUrGrArUrArArArGrCdTdG | 80.4
13 | sense rGrUrArCrUrUrUrUrArArArCrUrArGrUrArArUdTdT / antisense rArUrUrArCrUrArGrUrUrUrArArArArGrUrArCdCdA | 86.2
14 | sense rGrUrArUrGrCrUrGrArUrGrGrUrArGrCrArUrAdTdT / antisense rUrArUrGrCrUrArCrCrArUrCrArGrCrArUrArCdAdC | 75.7
15 | sense rGrUrGrGrArArUrGrCrArGrUrUrArUrArUrUrUdTdT / antisense rArArArUrArUrArArCrUrGrCrArUrUrCrCrArCdTdG | 84.6
16 | sense rGrUrUrUrCrGrGrCrCrArUrUrGrUrUrGrArArCdTdT / antisense rGrUrUrCrArArCrArArUrGrGrCrCrGrArArArCdTdC | 61.6

Row | Substance | normalised inhibition (eCFP-eYFP dual reporter) [%]
17 | sense rUrArGrArUrArUrCrCrUrUrCrArGrArArUrCrGdTdT / antisense rCrGrArUrUrCrUrGrArArGrGrArUrArUrCrUrAdAdA | 47.9
18 | sense rUrArGrUrArArUrArGrArArUrUrUrUrCrUrGrAdTdT / antisense rUrCrArGrArArArArUrUrCrUrArUrUrArCrUrAdGdT | 72.3
19 | sense rUrArUrCrCrArArArArUrGrUrUrUrCrArUrCrCdTdT / antisense rGrGrArUrGrArArArCrArUrUrUrUrGrGrArUrAdAdA | 48.2
20 | sense rUrArUrCrUrUrArArCrArUrCrArArUrUrCrArGdTdT / antisense rCrUrGrArArUrUrGrArUrGrUrUrArArGrArUrAdGdA | 50.5
21 | sense rUrArUrGrUrUrUrArGrArUrArUrCrCrUrUrCrAdTdT / antisense rUrGrArArGrGrArUrArUrCrUrArArArCrArUrAdTdG | 63.5
22 | sense rUrCrArGrUrCrUrCrUrGrCrUrGrGrArUrGrArAdTdT / antisense rUrUrCrArUrCrCrArGrCrArGrArGrArCrUrGrAdAdT | 62.4
23 | sense rUrCrCrArArArUrArArArCrCrArCrCrArArCrUdTdT / antisense rArGrUrUrGrGrUrGrGrUrUrUrArUrUrUrGrGrAdTdA | 61.8
24 | sense rUrCrCrUrUrCrArGrArArUrCrGrArUrGrGrArGdTdT / antisense rCrUrCrCrArUrCrGrArUrUrCrUrGrArArGrGrAdTdA | 50
25 | sense rUrCrUrGrArArArArCrArArCrArUrCrArUrGrCdTdT / antisense rGrCrArUrGrArUrGrUrUrGrUrUrUrUrCrArGrAdTdG | 48.3
26 | sense rUrGrCrArGrUrUrArUrArUrUrUrGrGrArCrCrAdTdT / antisense rUrGrGrUrCrCrArArArUrArUrArArCrUrGrCrAdTdT | 81.7
27 | sense rUrGrGrArUrGrArArCrCrGrArArUrCrCrUrArAdTdT / antisense rUrUrArGrGrArUrUrCrGrGrUrUrCrArUrCrCrAdGdC | 74.3
28 | sense rUrUrArArArCrUrArGrUrArArUrArGrArArUrUdTdT / antisense rArArUrUrCrUrArUrUrArCrUrArGrUrUrUrArAdAdA | 46.7
29 | sense rUrUrCrArUrCrCrArArArUrGrUrGrUrArUrGrCdTdT / antisense rGrCrArUrArCrArCrArUrUrUrGrGrArUrGrArAdAdC | 46
30 | sense rUrUrUrCrArArGrCrGrGrUrUrArCrArArGrArGdTdT / antisense rCrUrCrUrUrGrUrArArCrCrGrCrUrUrGrArArAdTdC | 45.5
31 | sense rUrUrUrCrUrGrArArGrArArUrArUrCrCrArArAdTdT / antisense rUrUrUrGrGrArUrArUrUrCrUrUrCrArGrArArAdAdT | 82.5
32 | sense rUrUrUrUrCrUrGrArArGrArArUrArUrCrCrArAdTdT / antisense rUrUrGrGrArUrArUrUrCrUrUrCrArGrArArArAdTdT | 85.3

target: UBE2S; assay: reporter assay of Huesken 2005; details: siRNA

Row | Substance | normalised inhibition (eCFP-eYFP dual reporter) [%]
33 | sense rArArCrUrArCrGrArGrGrArGrUrArUrGrCrArGdTdT / antisense rCrUrGrCrArUrArCrUrCrCrUrCrGrUrArGrUrUdCdT | 40
34 | sense rArArGrArUrCrUrUrCrCrArCrCrCrGrArArCrGdTdT / antisense rCrGrUrUrCrGrGrGrUrGrGrArArGrArUrCrUrUdGdG | 60.4
35 | sense rArArGrGrUrCrUrUrUrCrCrCrArArCrGrArGrGdTdT / antisense rCrCrUrCrGrUrUrGrGrGrArArArGrArCrCrUrUdGdA | 53
36 | sense rArCrArCrGrUrArCrUrGrCrUrGrArCrCrArUrCdTdT / antisense rGrArUrGrGrUrCrArGrCrArGrUrArCrGrUrGrUdCdG | 59.3
37 | sense rArCrCrCrCrArUrArUrGrCrUrGrGrArGrGrUrCdTdT / antisense rGrArCrCrUrCrCrArGrCrArUrArUrGrGrGrGrUdCdC | 49.9
38 | sense rArCrCrCrGrArUrGrGrCrArUrCrArArGrGrUrCdTdT / antisense rGrArCrCrUrUrGrArUrGrCrCrArUrCrGrGrGrUdGdG | 66.4
39 | sense rArCrGrArGrGrArGrGrCrGrGrGrCrCrGrCrCrUdTdT / antisense rArGrGrCrGrGrCrCrCrGrCrCrUrCrCrUrCrGrUdTdG | 44.3
40 | sense rArCrGrGrCrUrGrArGrCrUrGrGrGrCrArUrCrCdTdT / antisense rGrGrArUrGrCrCrCrArGrCrUrCrArGrCrCrGrUdCdC | 52.3
41 | sense rArCrUrGrArCrCrGrCrArGrArCrCrCrArCrCrCdTdT / antisense rGrGrGrUrGrGrGrUrCrUrGrCrGrGrUrCrArGrUdGdT | 43.6
42 | sense rArGrCrCrGrGrUrCrGrGrGrCrCrCrUrGrGrCrCdTdT / antisense rGrGrCrCrArGrGrGrCrCrCrGrArCrCrGrGrCrUdTdC | 43
43 | sense rArGrCrUrUrCrCrUrCrCrArCrCrGrArCrCrCrUdTdT / antisense rArGrGrGrUrCrGrGrUrGrGrArGrGrArArGrCrUdTdC | 49.4
44 | sense rArGrGrArCrUrUrCrCrCrUrGrCrCrUrCrCrCrCdTdT / antisense rGrGrGrGrArGrGrCrArGrGrGrArArGrUrCrCrUdTdC | 55.2
45 | sense rArGrGrGrCrCrGrArArGrCrCrGrGrUrCrGrGrGdTdT / antisense rCrCrCrGrArCrCrGrGrCrUrUrCrGrGrCrCrCrUdGdC | 49.1
46 | sense rArGrGrGrGrArCrCrCrCrArUrArUrGrCrUrGrGdTdT / antisense rCrCrArGrCrArUrArUrGrGrGrGrUrCrCrCrCrUdCdA | 36.5
47 | sense rArGrUrArUrGrCrArGrCrUrCrGrGrGrCrCrCrGdTdT / antisense rCrGrGrGrCrCrCrGrArGrCrUrGrCrArUrArCrUdCdC | 49.8
48 | sense rArGrUrGrCrCrUrGrCrUrGrArUrCrCrArCrCrCdTdT / antisense rGrGrGrUrGrGrArUrCrArGrCrArGrGrCrArCrUdTdG | 55.7
49 | sense rArUrCrUrUrCrCrArCrCrCrGrArArCrGrUrGrGdTdT / antisense rCrCrArCrGrUrUrCrGrGrGrUrGrGrArArGrArUdCdT | 31.6
50 | sense rArUrGrCrUrGrGrCrGrArGrCrGrCrGrArUrArAdTdT / antisense rUrUrArUrCrGrCrGrCrUrCrGrCrCrArGrCrArUdGdC | 71.3
51 | sense rArUrGrGrCrArUrCrArArGrGrUrCrUrUrUrCrCdTdT / antisense rGrGrArArArGrArCrCrUrUrGrArUrGrCrCrArUdCdG | 56.5
52 | sense rCrArArGrUrGrCrCrUrGrCrUrGrArUrCrCrArCdTdT / antisense rGrUrGrGrArUrCrArGrCrArGrGrCrArCrUrUrGdAdT | 63.5
